Article PMC5024129, “Adipokinetic hormones and their G protein-coupled receptors emerged in Lophotrochozoa” (Scientific Reports, 2016)
Square brackets hold non-standard residues; d marks the D form. Ends that are not written are not given here. Peptide text beside a SMILES is read from it. pGlu = O=C1CC[C@@H](C(=O)O)N1

Tests used:
Aplysia californica = settings: injection into the slug; cited from earlier work
Description: Johnson et al.[34] have recently shown that an AKH is present in the sea slug Aplysia californica. […] These findings are difficult to reconcile with our above considerations, but our own considerations are, of course, only hypothetical.

C. gigas AKHR1-D = assay: Bioluminescence assay in CHO/G-16 cells expressing C. gigas AKHR1 splice variant D; type: cell-based, Crassostrea gigas
Description: (§1) We stably expressed all four cloned splice variants from C. gigas AKHR1 (Fig. 2) in Chinese Hamster Ovary (CHO) cells. These cells were also stably transfected with the promiscuous G protein, G-16, and transiently transfected with apoaequorin. An activation of the receptor by its ligand in these pretreated CHO cells would result in an IP3/Ca^2+ second messenger cascade, which could be measured as a bioluminescence signal.
(§2) CHO cells stably expressing the human G-protein 16 (CHO/G16) were maintained in DMEM/F-12 + GlutaMAX^TM (Life Technologies) medium with 200 μg/ml hygromycin B (Invitrogen), 5% fetal calf serum (FCS) (Life Technologies), 1% (v/v) glutaMAX (Life Technologies), 100 U/ml penicillin(Life Technologies), and 100 μg/ml streptomycin (Life Technologies). To express the AKH receptor, 5 × 10^4 CHO/G16 cells were transfected with 3 μg pIRES vector containing the AKH receptor insert using JetPEI® transfection reagent (Polyplus), while 3 μg empty pIRES vector was used as a control. All tested peptides were from Genemed Synthesis, Inc. and initially dissolved in demethylformamide (DMF) followed by dilution in PBS.

C. gigas AKHR2 = assay: Bioluminescence assay in CHO/G-16 cells expressing C. gigas AKHR2; type: cell-based, Crassostrea gigas
Experimental: as §2, with “This receptor, therefore, remains an orphan. CHO cells” for “CHO cells”, “in PBS. The purities of the peptides and peptide contents were determined by HPCL and mass spectrometry as supplied by Genemed Synthesis. The bioluminescence assay was performed as described earlier[9][30] using a Victor2 1420 Multilabel Counter (Perkin Elmer).” for “in PBS.”

C. gigas AKHR1-A = C. gigas AKHR1-A (Magallana gigas, UniProt B1VCT5); assay: Bioluminescence assay in CHO/G-16 cells stably expressing C. gigas AKHR1-A (apoaequorin, IP3/Ca2+ cascade); type: cell-based, Crassostrea gigas; settings: 10^−6 M peptide, CHO/G-16/AKHR1-A cells, Fig. 5A, n = 3
Description: as §1, §2

C. gigas AKHR1-C = assay: Bioluminescence assay in CHO/G-16 cells expressing C. gigas AKHR1 splice variant C; type: cell-based, Crassostrea gigas
Description: as §1, §2

Sequence of C. gigas AKHR1-A (B1VCT5 entry or part of it): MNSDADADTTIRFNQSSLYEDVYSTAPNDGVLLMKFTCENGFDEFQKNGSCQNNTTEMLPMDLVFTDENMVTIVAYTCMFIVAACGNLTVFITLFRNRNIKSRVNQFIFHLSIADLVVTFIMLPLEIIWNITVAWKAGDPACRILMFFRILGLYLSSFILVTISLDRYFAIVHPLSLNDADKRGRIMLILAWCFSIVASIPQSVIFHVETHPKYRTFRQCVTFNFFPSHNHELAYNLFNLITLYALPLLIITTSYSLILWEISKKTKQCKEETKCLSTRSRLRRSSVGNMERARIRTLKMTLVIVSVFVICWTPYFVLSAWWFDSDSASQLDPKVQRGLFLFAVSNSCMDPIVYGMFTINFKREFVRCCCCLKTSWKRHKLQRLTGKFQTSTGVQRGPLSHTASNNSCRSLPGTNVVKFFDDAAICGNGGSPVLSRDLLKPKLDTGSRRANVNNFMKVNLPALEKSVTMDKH

Row | Compound | Effect on defecation (Aplysia californica) | Effect on feeding (Aplysia californica) | Influence on hemolymph glucose concentrations (Aplysia californica) | Activation of AKHR1 splice variant D (C. gigas AKHR1-D) | Activation of AKHR2 (C. gigas AKHR2) | Bioluminescence response (activation) of AKHR1-A (C. gigas AKHR1-A) | Activation of AKHR1 splice variant C (C. gigas AKHR1-C)
1 | pQIHFSPDWGTamide [Aplysia californica AKH, molluscan true AKH of the sea slug] | induce defecation | reduce feeding | no influence |  |  |  | 
2 | CC(C)[C@H](NC(=O)[C@@H]1CCC(=O)N1)C(=O)N[C@@H](CO)C(=O)N[C@@H](Cc1ccccc1)C(=O)N[C@@H](CO)C(=O)N[C@H](C(=O)N[C@@H](CC(N)=O)C(=O)N[C@@H](Cc1c[nH]c2ccccc12)C(=O)NCC(=O)N[C@@H](CO)C(N)=O)[C@@H](C)O [C. gigas AKH] ([pGlu]VSFSTNWGS-NH2) |  |  |  | could not be activated | could not be activated | can be activated | could not be activated
3 | Dm-CCAP: D. melanogaster crustacean cardioactive peptide (PFCNAFTGC; ends and bridges not checked; cysteine pairing not given here; UniProt Q9VCW0 52-60, looked up) |  |  |  |  |  | not active | 
